Assays:
Format in all cases: in vivo
[1] = test system: velvetleaf (Abutilon theophrasti Medik.); assay: Example 3: pot test, foliar treatment of velvetleaf, pyroxsulam versus penoxsulam
Experimental: (§1) Upland field soil was put into a 1/1,000,000 hectare pot, and seeds of velvetleaf (Abutilon theophrasti Medik.) were sown. […] Further, the growth inhibition rate (expected value) was calculated in accordance with the Colby's formula.

[2] = test system: velvetleaf (Abutilon theophrasti Medik.); assay: Example 1: pot test, foliar treatment of velvetleaf, visual growth inhibition rate; conditions: 12th day after foliar treatment
Experimental: as §1

[3] = test system: velvetleaf (Abutilon theophrasti Medik.); assay: Example 2: pot test, foliar treatment of velvetleaf, visual growth inhibition rate; conditions: 15th day after foliar treatment
Experimental: as §1

COc1cnc(OC)n2nc(NS(=O)(=O)c3c(OCC(F)F)cccc3C(F)(F)F)nc12 [Penoxsulam, penoxsulam]
inhibition at 0.5 g/ha ([1]; Abutilon theophrasti, dose 0.5 g/ha, 8th day after foliar treatment, read-out: Growth inhibition rate (%) Measured value (A)): 0%
inhibition at […] ([1]; Abutilon theophrasti, dose 0.75 g/ha, 8th day after foliar treatment, read-out: Growth inhibition rate (%) Measured value (A)): 0%
inhibition at 3 g/ha ([1]; Abutilon theophrasti, dose 3 g/ha, 8th day after foliar treatment, read-out: Growth inhibition rate (%) Measured value (A)): 37%
grow inhibition compared with expected (Colby) ([1]; combined with tolpyralate, summary in words of Table 3, 8th day): a grow inhibition rate more than expected was not obtained

COc1cc(OC)n2nc(NS(=O)(=O)c3c(C(F)(F)F)ccnc3OC)nc2n1 [Pyroxsulam, pyroxsulam]
Growth inhibition rate (%) Measured value (A) ([2]; dose 0.5 g/ha): 2%
Growth inhibition rate (%) Measured value (A) ([2]; dose 1.5 g/ha): 17%
Growth inhibition rate (%) Measured value (A) ([2]; dose 2.25 g/ha): 25%
Growth inhibition rate (%) Measured value (A) ([2]; dose 3 g/ha): 27%
Growth inhibition rate (%) Measured value (A) ([3]; dose 0.125 g/ha): 0%
Growth inhibition rate (%) Measured value (A) ([3]; dose 0.25 g/ha): 0%
Growth inhibition rate (%) Measured value (A) ([3]; dose 0.5 g/ha): 0%
Growth inhibition rate (%) Measured value (A) ([3]; dose 3 g/ha): 20%
Growth inhibition rate (%) Measured value (A) ([3]; dose 4 g/ha): 30%
Growth inhibition rate (%) Measured value (A) ([3]; dose 5 g/ha): 33%
Growth inhibition rate (%) Measured value (A) ([3]; dose 6 g/ha): 35%
Growth inhibition rate (%) Measured value (A) ([1]; dose 0.5 g/ha, 8th day after foliar treatment): 0%
Growth inhibition rate (%) Measured value (A) ([1]; dose 3 g/ha, 8th day after foliar treatment): 32%

CCn1ncc(C(=O)c2ccc(S(C)(=O)=O)c(OCCOC)c2C)c1OC(C)OC(=O)OC (stereo not drawn) [Tolpyralate, tolpyralate]
Growth inhibition rate (%) Measured value (A) ([2]; dose 2.5 g/ha): 20%
Growth inhibition rate (%) Measured value (A) ([2]; dose 3.75 g/ha): 27%
Growth inhibition rate (%) Measured value (A) ([3]; dose 2.5 g/ha): 37%
Growth inhibition rate (%) Measured value (A) ([1]; dose 2.5 g/ha, 8th day after foliar treatment): 10%

— patent US12239133B2, “Herbicidal composition” (ISHIHARA SANGYO KAISHA, LTD., priority 2019, dated 2025)
